In patent US4939142A, “Substituted styrene derivatives” (priority 1989, dated 1990):
Where two headings read alike, the source gives them in different places.

Tests used:
[1] = in vivo; conditions: mouse, in vivo, po
Method: Male and female white mice (CFLP strain, 18-22 g) are used, 10 animals per dose. The test compounds are administered orally in a volume of 20 ml/kg. After administration the mice are observed for a period of 7 days. The animals are kept in plastic boxes, on wood litter, at room temperature. The animals receive standard mouse fodder and tap water ad libitum.

[2] = test system: motility; assay: animal or person; assay type: in vivo; conditions: for ED50: Mus musculus, po; for Therapeutical index: Table II, motility inhibition, LD50/ED50
Method: The test is accomplished according to the method of Borsy et al. in a 10-channel Dews system equipment, whereby 3 mice are used per channel. The test compound or the carrier, respectively, is administered orally, and one hour after the said treatment the animals are placed into the apparatus and the number of the interruptions of infrared radiation is registered for 30 minutes.
The results are summarized in Table II and documented by means of suitable statistics for each experiment.
[J. Borsy, E. Csanyi, I. Lazar: Arch. Int. Pharmacodyn. 124, 1 (1960)].

[3] = test system: acetic acid writhing; assay: Acetic acid "writhing test" on mice (Newbould); assay type: in vivo, white mice; conditions: for ED50: Mus musculus; for Therapeutical index: acetic acid writhing, LD50/ED50
Method: In the period between the 5th and 10th minutes following the administration of acetic acid the number of the characteristic "writhing" responses is counted for each animal and the "total writhing number" (within 5 minutes) is expressed as the percentage of the value obtained for the control animals. The mice are treated with the test compound and the carrier, respectively, orally 1 hour before the administration of acetic acid. 12 animals are used per dose.
[Newbould, B. D.: Brit.

[4] = test system: pentetrazole spasm; assay: Inhibition of pentetrazol spasm on mice; conditions: for ED50: Mus musculus, po; for Therapeutical index: Table V, pentetrazole spasm, LD50/ED50
Method: The modified method of Benziger and Hane is used on white mice. Groups consisting of 6 animals are used for each dose. […] The test compounds are administered orally one hour before the treatment with pentetrazole; in the control group the animals obtain the carrier orally at the same points of time.
The therapeutical index data disclosed in the above Tables are calculated by means of the following equation: [formula]

[5] = test system: hexobarbital narcosis; assay: Hexobarbital narcosis potentiating effect; conditions: for ED50: Mus musculus, po; for Therapeutical index LD50 /ED50: Table I, hexobarbital narcosis
Method: The test is carried out on white mice. Groups consisting of six mice are used for each dose and test compound. The test compound is administered orally and an hour after this treatment narcosis is induced by means of a 40 mg/kg i.v. dose of hexobarbital. The control group receives carrier instead of the test compound.
Those mice are considered to be having a positive reaction which show a narcosis time at least 2.5 times longer than that of the control group. The ED50 values thus transformed are calculated.

[6] = test system: nicotine spasm and lethality; assay: Inhibition of nicotine spasm and lethality on mice (Stone); assay type: in vivo; conditions: Table VIII; for ED50: Mus musculus, oral, 1 h before nicotine 1.4 mg/kg i.v.; for Therapeutical index: nicotine spasm and lethality, LD50/ED50
Source text: [Stone, C. C., Mecklenburg, K. L., Torchiana, M. L.: Arch. Int.

[7] = test system: yohimbin toxicity; assay: animal or person; conditions: for ED50: Mus musculus; for Therapeutical index: Table IV, yohimbin toxicity, LD50/ED50
Method: The test is carried out according to the method of Quinton. Groups consisting of 10 mice are used for each dose. The animal groups are treated with the suitable doses of the test compounds while the control group is treated with a carrier. An hour after the treatment a sublethal dose of yohimbin is administered intraperitoneally in a volume of 20 ml/kg. The perished animals are counted after 1 and 24 hours.

[8] = Table VII, oral, 1 h before acetic acid i.p., read-out: ED50

Row | SMILES | LD50 at 168 h [1] | ED50 [4] | Therapeutical index [4] | ED50 [5] | further results
1 | COc1ccc(/C=C/C2=CC(=N/OCC(C)CN(C)C)/CC(C)(C)C2)cc1 (racemic) [Example 25, D,L-5,5-Dimethyl-3-(E)-[(4'-methoxy-phenyl)-vinyl]-1-(E)-(2"-methyl-3"-dimethylamino-propoxyimino)-2-cyclohexane] | 1300 mg/kg | 15.5 mg/kg | 83.9 |  | ED50 [2]: ~200 mg/kg; Therapeutical index [2]: 6.5; ED50 ([3]; po): ~200 mg/kg; Therapeutical index ([3]; Table VII): 65
2 | CNC1=Nc2ccc(Cl)cc2C(c2ccccc2)=[N+]([O-])C1 [Chlordiazepoxid, reference compound] | 620 mg/kg |  |  | 10 mg/kg | Therapeutical index LD50 /ED50 [5]: 62.0
3 | CN1CCN(CCCO/N=C2C=C(/C=C/c3ccccc3)CC(C)(C)C/2)CC1 [Example 2, 5,5-Dimethyl-3-(E)-phenyl-vinyl-1-(E)-(4'-methyl-1'-piperazinyl-propoxyimino)-2-cyclohexene] | 2000 mg/kg | 140 mg/kg | 14.3 |  | ED50 [2]: 190 mg/kg; Therapeutical index [2]: 10.5; ED50 [6]: 78 mg/kg; Therapeutical index [6]: 25.6
4 | CN1CCN(CCCO/N=C2C=C(/C=C/c3ccc(Cl)cc3)CC(C)(C)C/2)CC1 [Example 4, 5,5-Dimethyl-3-(E)-[(4'-chloro-phenyl)-vinyl]-1-(E)-(4"-methyl-1"-piperazinyl-propoxyimino)-2-cyclohexene] | 2000 mg/kg | 180 mg/kg | 11.1 |  | 
5 | CN(C)CCCO/N=C1C=C(/C=C/c2ccc(Cl)cc2)CC(C)(C)C/1 [Example 5, 5,5-Dimethyl-3-(E)-[(4'-chloro-phenyl)-vinyl]-1-(E)-(3"-dimethylamino-propoxyimino)-2-cyclohexene] | 2000 mg/kg | 125 mg/kg | 16.0 |  | ED50 [2]: 120 mg/kg; Therapeutical index [2]: 17.0; ED50 [3, 8]: 155 mg/kg; Therapeutical index ([3]; Table VII): 12.9
6 | CN(C)CCCO/N=C1C=C(/C=C/c2c(Cl)cccc2Cl)CC(C)(C)C/1 [Example 7, 5,5-Dimethyl-3-[(2',6'-dichloro-phenyl)-vinyl]-1-(E)-(3"-dimethylamino-propoxyimino)-2-cyclohexene] | 2000 mg/kg | 80 mg/kg | 25.0 |  | ED50 [7]: 60 mg/kg; Therapeutical index [7]: 33.3; Therapeutical index [6]: 25
7 | CN(C)CCCO/N=C1C=C(/C=C/c2ccccc2Cl)CC(C)(C)C/1 [Example 9, 5,5-Dimethyl-3-(E)-[(2'-chloro-phenyl)-vinyl]-1-(E)-(3"-dimethylamino-propoxyimino)-2-cyclohexene] | 2000 mg/kg | 160 mg/kg | 12.5 |  | ED50 [7]: 50 mg/kg; Therapeutical index [7]: 40
8 | COc1ccc(/C=C/C2=CC(=N/OCCCN(C)C)/CC(C)(C)C2)cc1OC [Example 10, 5,5-Dimethyl-3-(E)-[(3',4'-dimethoxy-phenyl)-vinyl]-1-(E)-(3"-dimethylamino-propoxyimino)-2-cyclohexene] | 1000 mg/kg |  |  |  | ED50 [2]: 60 mg/kg; Therapeutical index [2]: 16.7; ED50 [7]: 40 mg/kg; Therapeutical index [7]: 25; ED50 [3, 8]: 153 mg/kg; Therapeutical index ([3]; Table VII): 6.5
9 | COc1ccc(/C=C/C2=CC(=N/OCCCN(C)C)/CC(C)(C)C2)cc1 [Example 11, 5,5-Dimethyl-3-(E)-[(4'-methoxy-phenyl)-vinyl]-1-(E)-(3"-dimethylamino-propoxyimino)-2-cyclohexene] | 2000 mg/kg | 78 mg/kg | 25.6 | 140 mg/kg | ED50 [7]: 40 mg/kg; Therapeutical index [7]: 50; Therapeutical index LD50 /ED50 [5]: 14.3
10 | CC(C)N(CCO/N=C1C=C(/C=C/c2ccccc2)CC(C)(C)C/1)C(C)C [Example 12] | 1000 mg/kg | 23 mg/kg | 43.5 | 100 mg/kg | ED50 [3, 8]: 50 mg/kg; Therapeutical index ([3]; Table VII): 20.0
11 | CC(C)N(CCO/N=C1C=C(/C=C/c2ccc(Cl)cc2)CC(C)(C)C/1)C(C)C [Example 14, 5,5-Dimethyl-3-(E)-[(4'-chloro-phenyl)-vinyl]-1-(E)-2'"-[bis-(2"-methyl-ethyl)-amino-ethoxyimino]-2-cyclohexene] | 2000 mg/kg | 70 mg/kg | 28.5 |  | 
12 | CN(C)CCO/N=C1C=C(/C=C/c2ccc(Cl)cc2)CC(C)(C)C/1 [Example 15, 5,5-Dimethyl-3-(E)-[(4'-chloro-phenyl)-vinyl]-1-(E)-(2"-dimethylamino-ethoxyimino)-cyclohexene] | 2000 mg/kg | 120 mg/kg | 16.6 | 25 mg/kg | ED50 [6]: 70 mg/kg; Therapeutical index [6]: 28.6; Therapeutical index LD50 /ED50 [5]: 80.0
13 | CC1(C)CC(/C=C/c2ccccc2)=CC(=N/OCCN2CCCCC2)/C1 [Example 16, 5,5-Dimethyl-3-(E)-phenyl-vinyl-1-(E)-(2'-N-piperidyl-ethyl)-oxyimino-2-cyclohexene] | 1850 mg/kg | 185 mg/kg | 10.0 | 40 mg/kg | ED50 [2]: 150 mg/kg; Therapeutical index [2]: 12.3; ED50 [6]: 70 mg/kg; Therapeutical index [6]: 26.4; Therapeutical index LD50 /ED50 [5]: 46.0
14 | CC1(C)CC(/C=C/c2ccccc2)=CC(=N/OCCN2CCOCC2)/C1 [Example 17, 5,5-Dimethyl-3-(E)-phenyl-vinyl-1-(E)-(N-morpholino-ethoxyimino)-2-cyclohexene] | 1600 mg/kg | 148 mg/kg | 10.8 | 13 mg/kg | ED50 [6]: 40 mg/kg; Therapeutical index [6]: 40.0; Therapeutical index LD50 /ED50 [5]: 123.0
15 | CCN(CC)CCO/N=C1C=C(/C=C/c2ccc(OC)cc2)CC(C)(C)C/1 [Example 23, 5,5-Dimethyl-3-(E)-[(4'-methoxy-phenyl)-vinyl]-1-(E)-(2"-diethylamino-ethoxyimino)-2-cyclohexene] | 1000 mg/kg | 58 mg/kg | 17.2 |  | 
16 | CC1(C)CC(/C=C/c2ccc(Cl)cc2)=CC(=N/OCCCN2CCOCC2)/C1 [Example 24, 5,5-Dimethyl-3-(E)-[(4'-chloro-phenyl)-vinyl]-1-(E)-(N-morpholino-propoxyimino)-2-cyclohexane] | > 1000 mg/kg | 110 mg/kg | > 9.1 |  | 
17 | CN(C)CCCN1c2ccccc2CCc2ccccc21 [Imipramin, reference compound] |  |  |  |  | ED50 [7]: 21 mg/kg
18 | CCCC(C)(COC(N)=O)COC(N)=O [Meprobamate, reference compound] |  |  |  | 260 mg/kg | ED50 [2]: 270 mg/kg; Therapeutical index LD50 /ED50 [5]: 4.2
19 | CC(=O)Nc1ccc(O)cc1 [Paracetamol, reference compound] |  |  |  |  | ED50 [3, 8]: 180 mg/kg
20 | OC(CCN1CCCCC1)(c1ccccc1)C1CCCCC1 (stereo not shown) [Trihexyphenidyl, reference compound] |  |  |  |  | ED50 [6]: 20 mg/kg
21 | CCOc1ccccc1OCC1CNCCO1 (stereo not shown) [Viloxazin, reference compound] |  |  |  |  | ED50 [7]: 20 mg/kg
